Structures can show the parent of a compound that is named as a salt.
target: T1, VEGFR/KDR (Homo sapiens, UniProt P35968); test: VEGFR/KDR kinase inhibition, DELFIA assay; type: biochemical; details: ATP 0.6 uM (2x Km), enzyme 5 nM
T1 construct: made in house; host or cells: Sf9 cells (Spodoptera frugiperda), baculovirus
Procedure, shortened: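 Enzyme (5 nM) pre-incubated 4 min on ice with inhibitor and Mg-ATP (0.6 uM, 2× Km), then reacted 10-30 min at 30° C on immobilized poly(Glu4,Tyr). EDTA-quenched phosphotyrosine detected with Europium-labeled antibody by time-resolved fluorescence; IC50 from concentration series.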

T1 sequence (P35968 806-1356): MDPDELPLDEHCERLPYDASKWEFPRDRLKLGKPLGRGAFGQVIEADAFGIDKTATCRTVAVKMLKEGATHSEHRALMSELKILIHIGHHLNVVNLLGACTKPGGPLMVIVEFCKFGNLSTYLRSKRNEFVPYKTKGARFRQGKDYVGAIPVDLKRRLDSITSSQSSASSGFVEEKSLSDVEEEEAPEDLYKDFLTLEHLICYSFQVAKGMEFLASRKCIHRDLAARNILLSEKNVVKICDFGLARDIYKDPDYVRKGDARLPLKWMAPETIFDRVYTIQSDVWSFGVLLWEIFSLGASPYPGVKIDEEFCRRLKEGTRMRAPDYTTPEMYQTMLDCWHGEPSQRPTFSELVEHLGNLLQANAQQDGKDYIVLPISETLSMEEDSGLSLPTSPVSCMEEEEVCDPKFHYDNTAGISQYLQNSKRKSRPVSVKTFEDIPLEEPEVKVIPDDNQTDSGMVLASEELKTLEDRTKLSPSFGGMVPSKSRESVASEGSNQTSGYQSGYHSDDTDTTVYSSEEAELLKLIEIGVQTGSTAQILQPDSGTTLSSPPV

**Q.** `CC(C)NC(=O)Nc1ccc(Oc2ccnc3cc(-c4ncc(C(=O)NCCN5CCOCC5)n4C)sc23)c(F)c1` [Compound 218, 2-(7-(2-fluoro-4-(3-isopropylureido)phenoxy)thieno[3,2-b]pyridin-2-yl)-1-methyl-N-(2-morpholinoethyl)-1H-imidazole-5-carboxamide] was tested. Which IC50 did it give?
**A.** Its IC50 is < 50 nM.

**Q.** How did the IC50 turn out when `Cn1c(C(=O)N2CCCC2)cnc1-c1cc2nccc(Oc3ccc(NC(=O)NC4CC4)cc3F)c2s1` [Compound 222, 1-cyclopropyl-3-(3-fluoro-4-(2-(1-methyl-5-(pyrrolidine-1-carbonyl)-1H-imidazol-2-yl)thieno[3,2-b]pyridin-7-yloxy)phenyl)urea] was run?
**A.** The IC50 was < 50 nM.

**Q.** `CC(C)NC(=O)Nc1ccc(Oc2ccnc3cc(-c4ncc(C(=O)N5CCCC5)n4C)sc23)c(F)c1` [Compound 223, 1-(3-fluoro-4-(2-(1-methyl-5-(pyrrolidine-1-carbonyl)-1H-imidazol-2-yl)thieno[3,2-b]pyridin-7-yloxy)phenyl)-3-isopropylurea] was tested. Which IC50 did it give?
**A.** The IC50 was 100 to 250 nM.

**Q.** How did the IC50 turn out when `Cn1c(C(=O)NCCCN2CCOCC2)cnc1-c1cc2nccc(Oc3ccc(NC(=O)NC4CC4)cc3F)c2s1` [Compound 224] was run?
**A.** Its IC50 is < 50 nM.

**Q.** How did the IC50 turn out when `O=C(Nc1ccc(Oc2ccnc3cc(-c4ccc(C(=O)O)cn4)sc23)c(F)c1)NC1CC1` [Compound 225, 6-(7-(4-(3-Cyclopropylureido)-2-fluorophenoxy)thieno[3,2-b]pyridin-2-yl)nicotinic acid] was run?
**A.** Its IC50 is < 50 nM.

**Q.** With `CN(C)[C@@H]1CCN(C(=O)c2ccc(-c3cc4nccc(Oc5ccc(NC(=O)NC6CC6)cc5F)c4s3)nc2)C1` [Compound 227, (R)-1-cyclopropyl-3-(4-(2-(5-(3-(dimethylamino)pyrrolidine-1-carbonyl)pyridin-2-yl)thieno[3,2-b]pyridin-7-yloxy)-3-fluorophenyl)urea] as the compound, how does the IC50 read?
**A.** The IC50 was < 50 nM.

**Q.** `CN1CCN(C(=O)c2ccc(-c3cc4nccc(Oc5ccc(NC(=O)NC6CC6)cc5F)c4s3)nc2)CC1` [Compound 228, 1-cyclopropyl-3-(3-fluoro-4-(2-(5-(4-methylpiperazine-1-carbonyl)pyridin-2-yl)thieno[3,2-b]pyridin-7-yloxy)phenyl)urea] was tested. Which IC50 did it give?
**A.** The IC50 was < 50 nM.

**Q.** For `COCCOCCOCCOCCNC(=O)c1ccc(-c2cc3nccc(Oc4ccc(NC(=O)NC5CC5)cc4F)c3s2)nc1` [Compound 229, 6-(7-(4-(3-cyclopropylureido)-2-fluorophenoxy)thieno[3,2-b]pyridin-2-yl)-N-(2,5,8,11-tetraoxatridecan-13-yl)nicotinamide], which IC50 is on record?
**A.** The IC50 was < 50 nM.

**Q.** For `O=C(Nc1ccc(Oc2ccnc3cc(-c4ccc(C(=O)N5CCN(CCN6CCOCC6)CC5)cn4)sc23)c(F)c1)NC1CC1` [Compound 231, 1-cyclopropyl-3-(3-fluoro-4-(2-(5-(4-(2-morpholinoethyl)piperazine-1-carbonyl)pyridin-2-yl)thieno[3,2-b]pyridin-7-yloxy)phenyl)urea], which IC50 is on record?
**A.** The IC50 was < 50 nM.

**Q.** For `CN1CCN(CCNC(=O)c2ccc(-c3cc4nccc(Oc5ccc(NC(=O)NC6CC6)cc5F)c4s3)nc2)CC1` [Compound 233, 6-(7-(4-(3-cyclopropylureido)-2-fluorophenoxy)thieno[3,2-b]pyridin-2-yl)-N-(2-(4-methylpiperazin-1-yl)ethyl)nicotinamide formate salt], which IC50 is on record?
**A.** The IC50 was < 50 nM.

**Q.** `O=C(Nc1ccc(Oc2ccnc3cc(-c4ccc(C(=O)NCCN5CCOCC5)cn4)sc23)c(F)c1)NC1CC1` [Compound 235, 6-(7-(4-(3-cyclopropylureido)-2-fluorophenoxy)thieno[3,2-b]pyridin-yl)-N-(2-morpholinoethyl)nicotinamide] was tested. Which IC50 did it give?
**A.** The IC50 was < 50 nM.

**Q.** Which IC50 does the source give for `CCOC(=O)CCN1CCN(C(=O)c2ccc(-c3cc4nccc(Oc5ccc(NC(=O)NC6CC6)cc5F)c4s3)nc2)CC1` [Compound 236, ethyl 3-(4-(6-(7-(4-(3-cyclopropylureido)-2-fluorophenoxy)thieno-[3,2-b]pyridin-2-yl)nicotinoyl)piperazin-1-yl)propanoate] here?
**A.** The IC50 was < 50 nM.
